# Measured values reported in patent publication US20050207984A1, “Formoterol and ciclesonide aerosol formulations” (priority 2002, published 2005).
# Assay: Chemical stability, ciclesonide related impurities by HPLC
# Type: physicochemical
# Settings: 5 days at 50° C.
# Description: MDI units from Example 2 were stored for 5 days at 50° C. in both valve-up and valve-down orientations (two units at each orientation). The samples were then tested for ciclesonide related impurities by High Performance Liquid Chromatography and the following results were obtained: […]
smiles,measurement,value
"CC(C)C(=O)OCC(=O)[C@@]12O[C@H](C3CCCCC3)O[C@@H]1C[C@H]1[C@@H]3CCC4=CC(=O)C=C[C@]4(C)[C@H]3[C@@H](O)C[C@@]12C [ciclesonide, 11β, 16α, 17, 21-tetrahydroxypregna 1,4-diene-3,20-dione, cyclic 16,17-acetal with cyclohexanecarboxaldehyde, 21-isobutyrate]",chemical stability in the example formulation,high degree of chemical stability
